In patent EP0536208B1, “1,2-DIHYDRO-3H-DIBENZISOQUINOLINE-1,3-DIONE ANTICANCER AGENTS” (RESEARCH CORPORATION TECHNOLOGIES, INC., priority 1990, dated 1992):

Legend:
[1] = system: Colon-38 Adenocarcinoma; details: mice; cited from earlier work
[2] = system: M5-76 Sarcoma; details: cited from earlier work
[3] = system: P-388/ADR (adriamycin-Resis-tant); details: mice; cited from earlier work
[4] = system: SW80p105; assay: Activity against human colon tumor cells (MTT assay, 3 day drug exposure); type: cell-based; details: cells plated 24 hr. prior to drug addition, read-out: Concentration for 50% inhibition of colony formation for human colon tumors
Procedure: (§1) For example, the compounds of the present invention were evaluated for cytotoxic activities in cloned human colon carcinomas. The clonogenic assays were conducted in accordance with the procedure described hereinbelow: 1) Colony Forming Assays in Soft Agar: Fresh human or murine tumors are disaggregated into single cell suspensions using mechanical, hypoosmotic and/or enzymatic (trypsin) methods. The single cells (about 5 X 10^4-10^5) are plated in 35 mm plastic petri dishes onto a 1 ml "feeder layer" of 0.3% agar dissolved in growth medium containing 5-10% vol/vol of heat-inactivated fetal bovine serum, molten 0.3% agar and the antibiotics penicillin (100 u/mL) and streptomycin (100 ug/mL). Drug exposures can be performed for one hour or continuously (drugs added to final plating medium). Tumor cell colonies > 60 uM in size are counted by automated image analysis after 10-20 days of incubation in a humidified, 5-10% CO2-gassed environment maintained at 37°C. Inhibition of colony formation is calculated based on comparisons to control (untreated) plates wherein the growth of hundreds of colonies/plate is typical. (Salmon SE, et al., N Engl J Med 298(24):1321-1327, 1978).
(§2) Compounds of the present invention were tested for their in vitro activity in tumor cells sensitive and resistant to standard anti-cancer agents. The tumor cell lines used in this protocol are 8226 human Myeloma^1; 8226/Dox-40^2, L-1210/Murine Leukemia, multidrug resistant L-210/^3, 2780 Human Ovarian Cancer and 2780/AD^4. Each of these resistant cell lines is known as a multidrug resistant or "MDR" cell line. These cell lines produce a 170,00 molecular weight membrane protein termed the P-glycoprotein which acts as an active drug efflux pump. Thus, once a cell produces the P-glycoprotein, it has the capability of pumping out of the cell a large variety of unrelated natural products. […] The protocol for measuring the effectiveness of compounds of the present invention is as follows: 2) In Vitro Tumor Cell Viability Assays Using MTT-Dye: Tumors are processed into a single cell suspension as described above. The cells are plated at a concentration of 3-5 X 10^4/1 mL well into plastic 96-well plates. […] Afterwards the medium containing the drug is removed, the cells are "washed" by centrifugation in fresh medium or phosphate-buffered saline (pH 7.4). A tetrazolium dye is then added (3,4,5-dimethylthiazol-2-yl)-2,5-diphenyl tetrazolium bromide (MTT). This dye forms a colored formazan product upon activation by mitochondrial reductases in viable cells. Typically, the formazan product is solubilized in acid-propanol or DMSO. The intensity of the color is proportional to viable cell numbers and this is quantitated by spectrophotometric absorbance ([…]) on a micro ELISA plate reader. Test results are calibrated in % control absorbance from untreated tumor cells (Mossman T: J Immunol Meth 65:55-63, 1983). Using the above procedure, Compound 1 was tested for its cytotoxic activity with respect to various tumor cell lines.

[5] = system: HT29p30; assay: as above; type: cell-based; details: cells plated 24 hr. prior to drug addition, read-out: Concentration for 50% inhibition of colony formation for human colon tumors
Procedure: as §1, §2

[6] = system: 16-C Mammary Adenocarcinoma; details: cited from earlier work
[7] = system: P-388 lymphocytic leukemia; details: mice; cited from earlier work
[8] = system: LOVOp32; assay: Activity against human colon tumor cells (MTT assay, 3 day drug exposure); type: cell-based; details: cells plated 24 hr. prior to drug addition, read-out: Concentration for 50% inhibition of colony formation for human colon tumors
Procedure: as §1
(§3) Compounds of the present invention were tested for their in vitro activity in tumor cells sensitive and resistant to standard anti-cancer agents. The tumor cell lines used in this protocol are 8226 human Myeloma^1; 8226/Dox-40^2, L-1210/Murine Leukemia, multidrug resistant L-210/^3, 2780 Human Ovarian Cancer and 2780/AD^4. Each of these resistant cell lines is known as a multidrug resistant or "MDR" cell line. These cell lines produce a 170,00 molecular weight membrane protein termed the P-glycoprotein which acts as an active drug efflux pump. Thus, once a cell produces the P-glycoprotein, it has the capability of pumping out of the cell a large variety of unrelated natural products. […] The protocol for measuring the effectiveness of compounds of the present invention is as follows: 2) In Vitro Tumor Cell Viability Assays Using MTT-Dye: Tumors are processed into a single cell suspension as described above. The cells are plated at a concentration of 3-5 X 10^4/1 mL well into plastic 96-well plates. Growth medium containing 5-10% (vol/vol) heat-inactivated fetal bovine serum and penicillin/streptomycin (as above) is added prior to incubation at 37°C for six days. Afterwards the medium containing the drug is removed, the cells are "washed" by centrifugation in fresh medium or phosphate-buffered saline (pH 7.4). A tetrazolium dye is then added (3,4,5-dimethylthiazol-2-yl)-2,5-diphenyl tetrazolium bromide (MTT). This dye forms a colored formazan product upon activation by mitochondrial reductases in viable cells. Typically, the formazan product is solubilized in acid-propanol or DMSO. The intensity of the color is proportional to viable cell numbers and this is quantitated by spectrophotometric absorbance ([…]) on a micro ELISA plate reader. Test results are calibrated in % control absorbance from untreated tumor cells (Mossman T: J Immunol Meth 65:55-63, 1983). Using the above procedure, Compound 1 was tested for its cytotoxic activity with respect to various tumor cell lines.

[9] = system: 205p14; assay: as above; type: cell-based; details: cells plated 24 hr. prior to drug addition, read-out: Concentration for 50% inhibition of colony formation for human colon tumors
Procedure: as §1, §3

[10] = system: FRESH HUMAN TUMORS; assay: Colony forming assay in fresh human tumors, all tumor types; type: cell-based; details: Total of all tumor types; .001 ug/mL continuously; tumor cell survival of less than 50% of control
Procedure: as §1, with “The” for “For example, the compounds of the present invention were evaluated for cytotoxic activities in cloned human colon carcinomas. The”, “(Salmon SE, et al., N Engl J Med 298(24):1321-1327, 1978).” left out
Fresh human tumor specimens disaggregated to single cell suspensions and exposed to .001 ug/mL of drug continuously. Percent survival represents the fraction of tumor colonies (> 60 uM size) obtained after drug treatment compared to untreated cells of the same tumor. […] Each tumor sample is analyzed in three different petri dishes (i.e., n = 3 for each sample).

Row | Compound | Comparative Activity From The Literature, Days of Tumor Growth Delay [1] | Comparative Activity From The Literature, Days of Tumor Growth Delay [2] | Comparative Activity From The Literature, ILS (Percentage Increased Lifespan) [3] | IC50 [4] | IC50 [5] | Comparative Activity From The Literature, Days of Tumor Growth Delay [6] | Comparative Activity From The Literature, ILS (Percentage Increased Lifespan) [7] | IC50 [8] | IC50 [9] | Overall Response [10]
1 | CN(C)CCN1C(=O)c2cccc3cc(N)cc(c23)C1=O [Amonafide, amino-N-dimethylaminoethylbenz[de]isoquinoline] | <7 days | 7 days | 35 ILS | 0.57 µM | 0.96 µM | 7 days | 99 ILS | 0.6 µM | 0.16 µM | 
2 | COc1cccc2c1C(=O)c1c(O)c3c(c(O)c1C2=O)C[C@@](O)(C(=O)CO)C[C@@H]3O[C@H]1C[C@H](N)[C@H](O)[C@H](C)O1 [Doxorubicin] | 10 days |  | 18 ILS |  |  |  | 164 ILS |  |  | 20%
